Results from paper PMC3689883 (Journal of medicinal chemistry, 2013).

Key:
AMPA receptors [1] = conditions: read-out: Ki [3H]AMPA; rat cortical synaptosomes; ref Clausen et al 14; cited from earlier work
KA receptors [2] = conditions: cited from earlier work; for Ki [3H]KA: rat cortical synaptosomes, ref Clausen et al 14
NMDA receptors = conditions: cited from earlier work
GluN1/GluN2D = GluN1/GluN2D (Rattus norvegicus, UniProt Q62645); experiment: Two-electrode voltage-clamp, Xenopus oocytes expressing GluN1/GluN2D; assay type: cell-based; conditions: EC50 GluN2A vs GluN2D
Sequence of GluN1/GluN2D (Q62645 28-1323, other chains not shown): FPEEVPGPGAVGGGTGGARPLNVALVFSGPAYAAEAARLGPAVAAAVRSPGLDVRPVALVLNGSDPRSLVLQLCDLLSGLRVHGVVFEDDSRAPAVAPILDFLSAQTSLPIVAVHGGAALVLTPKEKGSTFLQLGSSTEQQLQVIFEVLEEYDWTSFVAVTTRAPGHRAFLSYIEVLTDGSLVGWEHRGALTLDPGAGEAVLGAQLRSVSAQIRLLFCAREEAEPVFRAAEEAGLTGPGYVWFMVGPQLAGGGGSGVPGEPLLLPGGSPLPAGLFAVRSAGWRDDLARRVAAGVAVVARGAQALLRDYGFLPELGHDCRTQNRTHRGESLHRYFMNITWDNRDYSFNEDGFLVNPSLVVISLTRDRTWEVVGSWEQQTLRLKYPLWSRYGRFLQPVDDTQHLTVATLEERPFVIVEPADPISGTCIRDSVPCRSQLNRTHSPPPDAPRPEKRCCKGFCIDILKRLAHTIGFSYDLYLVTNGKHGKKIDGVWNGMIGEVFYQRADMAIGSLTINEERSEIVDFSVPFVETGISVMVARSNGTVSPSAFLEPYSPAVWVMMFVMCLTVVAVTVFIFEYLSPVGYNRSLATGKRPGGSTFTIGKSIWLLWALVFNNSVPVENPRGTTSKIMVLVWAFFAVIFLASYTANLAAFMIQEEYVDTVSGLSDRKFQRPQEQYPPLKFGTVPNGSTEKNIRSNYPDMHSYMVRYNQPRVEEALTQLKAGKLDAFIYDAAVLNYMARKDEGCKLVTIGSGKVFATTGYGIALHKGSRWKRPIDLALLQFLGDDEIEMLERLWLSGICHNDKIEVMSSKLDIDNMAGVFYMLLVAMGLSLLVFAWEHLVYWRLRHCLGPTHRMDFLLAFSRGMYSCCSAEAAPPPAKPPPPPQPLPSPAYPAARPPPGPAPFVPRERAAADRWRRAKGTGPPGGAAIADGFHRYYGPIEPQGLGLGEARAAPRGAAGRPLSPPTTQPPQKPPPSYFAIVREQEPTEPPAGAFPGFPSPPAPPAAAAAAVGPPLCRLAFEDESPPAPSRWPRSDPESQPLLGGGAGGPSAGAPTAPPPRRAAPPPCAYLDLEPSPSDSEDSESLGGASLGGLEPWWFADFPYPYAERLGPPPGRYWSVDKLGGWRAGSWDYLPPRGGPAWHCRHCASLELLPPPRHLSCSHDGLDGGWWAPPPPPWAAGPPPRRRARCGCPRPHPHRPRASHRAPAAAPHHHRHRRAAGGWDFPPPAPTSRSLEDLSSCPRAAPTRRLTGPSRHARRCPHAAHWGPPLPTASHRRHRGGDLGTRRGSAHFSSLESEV

AMPA receptors [3] = experiment: [3H]AMPA radioligand binding, rat cortical synaptosomes; conditions: at a concentration of 100 μM
KA receptors [4] = experiment: [3H]KA radioligand binding, rat cortical synaptosomes; conditions: at a concentration of 100 μM

Compound: CCCc1cnn(O)c1[C@@H](N)C(=O)O [Compound 3b]
- Ki (AMPA receptors [1]): > 100 µM
- Ki [3H]KA (KA receptors [2]): >100 µM

Compound: CCCC(=CC(N)C(=O)O)CP(=O)(O)O (stereo not shown) [[^3H]CGP 39653]
- Kd (NMDA receptors; read-out: Kd of radioligand, radioligand used at 2 nM): 0.006 µM

Compound: CC[C@]1(C(=O)O)C[C@H]1[C@H](N)C(=O)O.Cl [Compound 4c, (1S,2R)-2-((S)-amino(carboxy)methyl)-1-ethylcyclopropanecarboxylic acid hydrochloride]
- fold more potent at GluN2D compared to GluN2A (GluN1/GluN2D): 15 fold

Compound: CCCC[C@]1(C(=O)O)C[C@H]1[C@H](N)C(=O)O.Cl [Compound 4e, (1S,2R)-2-((S)-amino(carboxy)methyl)-1-butylcyclopropanecarboxylic acid hydrochloride]
- binding to AMPA receptors (AMPA receptors [3]): not binding
- binding to KA receptors (KA receptors [4]): not binding

Compound: NC(C(=O)O)c1ccnn1O (racemic) [Compound 3a, (RS)-2-(N-hydroxypyrazol-5-yl)glycine]
- Ki (AMPA receptors [1]): > 100 µM
- Ki [3H]KA (KA receptors [2]): >100 µM
- Ki (NMDA receptors; read-out: Ki [3H]CGP39653, rat cortical synaptosomes, ref Clausen et al 14): 10 µM

Compound: C=C(C)[C@H]1CN[C@H](C(=O)O)[C@H]1CC(=O)O [[^3H]KA, kainic acid]
- Kd (KA receptors [2]; read-out: Kd of radioligand, radioligand used at 5 nM): 0.0056 µM
